Reference: patent publication US20240285652A1, “AMORPHOUS NANO-MOLECULAR AGGREGATE COMPOSED OF ORGANIC MATERIAL, INORGANIC MATERIAL, OR SALT THEREOF, AND METHOD FOR PREPARING SAME” (SCAI THERAPEUTICS CO., LTD., priority 2021, published 2024)

Test: Corneal permeation experiment in Ussing chamber
Assay type: in vitro ADME
Details: pig cornea, 37° C., after 18 hours
Procedure: The corneal permeation experiment was conducted with reference to the contents of “Lee et. al, “Modulating the Transport Characteristics of Bruch's Membrane With Steroidal Glycosides and its Relevance to Age-Related Macular Degeneration (AMD). Invest. Ophthalmol. Vis. Sci. 2015, 56, 8403, 2015,” which is an already published paper. […] Basically, the drug is put into the donor chamber of the Ussing chamber, the corneal part of the pig eye is collected in a circular shape of 8 mm in size, and other tissues attached to the cornea were removed, and then fixed in place of the membrane, and the solution permeating the membrane was received in the receiving chamber, and at this time, it was placed in a constant temperature chamber in which the temperature at which diffusion occurs was adjusted to 37° C., which is close to human body temperature, and stored. After a certain amount of time passed, the diffusion properties of each sample could be identified by measuring the concentration of the solution in each donor chamber and receiving chamber. For the concentration, UV/VIS spectrum (Evolution201 UV/Vis; Thermo) was used, and the concentration was measured using a peak height at 420 nm.

CCN(CC)CCNC(=O)c1c(C)[nH]c(/C=C2\C(=O)Nc3ccc(F)cc32)c1C [Comparative Example 2, sunitinib-malate]
Drug in corneal tissue (μg, Mean ± SD): 65.7 ± 7.5 µg
Drug in receiver (μg, Mean ± SD): 8.8 ± 5.8 µg
Transport percentage* (%, Mean ± SD): 1.6 ± 1.1%
